Results taken from patent US9216986B1, “Quinoline derivatives as PDE10A enzyme inhibitors” (H. Lundbeck A/S, priority 2011, dated 2015).

What was measured:
[1] = system: rats; conditions: cited from earlier work
[2] = system: rats; conditions: cited from earlier work; remark: listed apart in the source
[3] = system: rats; conditions: cited from earlier work; remark: listed apart in the source
[4] = biological target: PDE10A enzyme (Homo sapiens (Human), UniProt Q9Y233); assay: PDE10A inhibition assay; assay type: biochemical; conditions: tritium labeled cAMP 5 nM
Sequence of PDE10A enzyme (Q9Y233 716-1055): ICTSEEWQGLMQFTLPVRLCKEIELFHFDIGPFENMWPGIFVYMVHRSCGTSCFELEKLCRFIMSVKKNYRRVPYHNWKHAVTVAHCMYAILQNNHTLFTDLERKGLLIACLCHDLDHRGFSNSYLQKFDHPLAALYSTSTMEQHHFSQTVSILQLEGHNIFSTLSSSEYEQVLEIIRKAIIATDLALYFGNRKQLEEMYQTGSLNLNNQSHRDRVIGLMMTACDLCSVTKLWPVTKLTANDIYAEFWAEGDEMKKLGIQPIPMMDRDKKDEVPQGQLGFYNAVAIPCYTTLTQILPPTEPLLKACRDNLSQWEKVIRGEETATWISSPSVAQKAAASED
Experimental: Active PDE10A enzyme is prepared in a number of ways for use in PDE assays (Loughney, K. et al. Gene 1999, 234, 109-117; Fujishige, K. et al. Eur J Biochem. 1999, 266, 1118-1127 and Soderling, S. et al. Proc. Natl. Acad. Sci. 1999, 96, 7071-7076). PDE10A can be expressed as full-length proteins or as truncated proteins, as long as they express the catalytic domain. PDE10A can be prepared in different cell types, for example insect cells or E. coli. An example of a method to obtain catalytically active PDE10A is as follows: The catalytic domain of human PDE10A (amino acids 440-779 from the sequence with accession number NP 006652) is amplified from total human brain total RNA by standard RT-PCR and is cloned into the BamH1 and Xho1 sites of the pET28a vector (Novagen). Expression in coli is performed according to standard protocols. Briefly, the expression plasmids are transformed into the BL21(DE3) E. coli strain, and 50 mL cultures inoculated with the cells allowed to grow to an OD600 of 0.4-0.6 before protein expression is induced with 0.5 mM IPTG. Following induction, the cells are incubated overnight at room temperature, after which the cells are collected by centrifugation. Cells expressing PDE10A are resuspended in 12 mL (50 mM TRIS-HCl-pH8.0, 1 mM MgCl2 and protease inhibitors). The cells are lysed by sonication, and after all cells are lysed, TritonX100 is added according to Novagen protocols.
A PDE10A assay may for example, be performed as follows: The assay is performed in 60 uL samples containing a fixed amount of the relevant PDE enzyme (sufficient to convert 20-25% of the cyclic nucleotide substrate), a buffer (50 mM HEPES7.6; 10 mM MgCl2; 0.02% Tween20), 0.1 mg/ml BSA, 225 pCi of ^3H-labelled cyclic nucleotide substrate, tritium labeled cAMP to a final concentration of 5 nM and varying amounts of inhibitors. Reactions are initiated by addition of the cyclic nucleotide substrate, and reactions are allowed to proceed for one hr at room temperature before being terminated through mixing with 15 uL 8 mg/mL yttrium silicate SPA beads (Amersham). The beads are allowed to settle for one hr in the dark before the plates are counted in a Wallac 1450 Microbeta counter. The measured signal can be converted to activity relative to an uninhibited control (100%) and IC50 values can be calculated using the XIfit extension to EXCEL.

SMILES	IC50 [4] [nM]	other results
COc1ccc(Cc2nccc3cc(OC)c(OC)cc23)cc1OC [Papaverine, papaverine]	–	hyperactivity induced by PCP [1]: reduced hyperactivity; reduction of amphetamine induced hyperactivity [2]: insignificant; catalepsy on its own ([3]; papaverine alone): did not cause catalepsy on its own; cataleptic effect of the D2 receptor antagonist haloperidol ([3]; together with haloperidol): potentiated the cataleptic effect
Cc1ncc(C)n2nc(CCc3ccc4ccc(Cl)cc4n3)nc12 [7-Chloro-2-[2-(5,8-dimethyl-[1,2,4]triazolo[1,5-a]pyrazin-2-yl)-ethyl]-quinoline]	52	–
Cc1cc(CCc2nc3cccc(C)n3n2)nc2ccccc12 [4-Methyl-2-[2-(5-methyl-[1,2,4]triazolo[1,5-a]pyridin-2-yl)-ethyl]-quinoline]	140	–
Cc1ncc(C)n2nc(/C=C/c3ccc4ccc(C(F)(F)F)cc4n3)nc12 [2-[(E)-2-(5,8-Dimethyl-[1,2,4]triazolo[1,5-a]pyrazin-2-yl)-vinyl]-7-trifluoromethyl-quinoline]	550	–
Cc1ncc(C)n2nc(CCc3ccc4cc(F)cc(F)c4n3)nc12 [2-[2-(5,8-Dimethyl-[1,2,4]triazolo[1,5-a]pyrazin-2-yl)-ethyl]-6,8-difluoro-quinoline]	300	–
Cc1cc(F)cc2ccc(CCc3nc4c(C)ncc(C)n4n3)nc12 [2-[2-(5,8-Dimethyl-[1,2,4]triazolo[1,5-a]pyrazin-2-yl)-ethyl]-6-fluoro-8-methyl-quinoline]	2000	–
Cc1ncc(C)n2nc(/C=C/c3ccc4cc(F)ccc4n3)nc12 [2-[(E)-2-(5,8-Dimethyl-[1,2,4]triazolo[1,5-a]pyrazin-2-yl)-vinyl]-6-fluoro-quinoline]	190	–
Cc1ncc(C)n2nc(CCc3ccc4ccc(C(F)(F)F)cc4n3)nc12 [2-[2-(5,8-Dimethyl-[1,2,4]triazolo[1,5-a]pyrazin-2-yl)-ethyl]-7-trifluoromethyl-quinoline]	240	–
Cc1ncc(C)n2nc(CCc3ccc4ccccc4n3)nc12 [2-[2-(5,8-Dimethyl-[1,2,4]triazolo[1,5-a]pyrazin-2-yl)-ethyl]-quinoline]	19	–
Cc1ncc(C)n2nc(CCc3ccc4cc(Cl)cc(F)c4n3)nc12 [6-Chloro-2-[2-(5,8-dimethyl-[1,2,4]triazolo[1,5-a]pyrazin-2-yl)-ethyl]-8-fluoro-quinoline]	240	–
Cc1ncc(C)n2nc(CCc3ccc4c(F)cc(F)cc4n3)nc12 [2-[2-(5,8-Dimethyl-[1,2,4]triazolo[1,5-a]pyrazin-2-yl)-ethyl]-5,7-difluoro-quinoline]	110	–
Cc1cc(C)n2cc(/C=C/c3ccc4ccccc4n3)nc2n1 [2-[(E)-2-(5,7-Dimethyl-imidazo[1,2-a]pyrimidin-2-yl)-vinyl]-quinoline]	320	–
